According to the supplement of paper PMC11061612:

Tests used:
Experiment in all cases: Bliss excess, mean over the matrix (fraction); higher = more synergy
GAMG (Glioblastoma) = system: GAMG (Glioblastoma)
In short: (§1)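 Bliss excess equals the observed combination effect minus the expected value EA + EB − EA·EB, where EA and EB are the effects of each agent alone. Combination Emax is the second-highest inhibition within the matrix. Inhibition was scaled from CellTiter-Glo 2.0 luminescence, with 0 set by vehicle wells and 1 by blank wells, after 72 hours of two-drug dosing of cells plated in 1536-well plates.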

[1] = system: SNU-16 (Gastric Carcinoma)
In short: as §1

[2] = system: SNU-449 (Hepatocellular Carcinoma)
In short: as §1

[3] = system: WSU-NHL (B-Cell Non-Hodgkin's Lymphoma)
In short: as §1

[4] = system: HH (T-Cell Non-Hodgkin's Lymphoma)
In short: as §1

A673 (Ewing's Sarcoma) = system: A673 (Ewing's Sarcoma)
In short: as §1

[5] = system: TGBC1TKB (Biliary Tract Carcinoma)
In short: as §1

MPP-89 (Mesothelioma) = system: MPP-89 (Mesothelioma)
In short: as §1

[6] = system: YAPC (Pancreatic Carcinoma)
In short: as §1

EW-11 (Ewing's Sarcoma) = system: EW-11 (Ewing's Sarcoma)
In short: as §1

[7] = system: SW1710 (Bladder Carcinoma)
In short: as §1

NCI-H2052 (Mesothelioma) = system: NCI-H2052 (Mesothelioma)
In short: as §1

CC1(C)CCC(CN2CCN(c3ccc(C(=O)NS(=O)(=O)c4ccc(NCC5CCOCC5)c([N+](=O)[O-])c4)c(Oc4cnc5[nH]ccc5c4)c3)CC2)=C(c2ccc(Cl)cc2)C1 [Venetoclax] + CS(=O)(=O)CCNCc1ccc(-c2ccc3ncnc(Nc4ccc(OCc5cccc(F)c5)c(Cl)c4)c3c2)o1 [Lapatinib] (first compound max 1 µM, 7x7, partner max 10 µM)
Bliss excess (GAMG (Glioblastoma)): -0.0231
Bliss excess [1]: 0.0168
Bliss excess [2]: -0.0572
Bliss excess [3]: 0.0482
Bliss excess [4]: -0.0178
Bliss excess (A673 (Ewing's Sarcoma)): -0.0426
Bliss excess [5]: -0.0308
Bliss excess (MPP-89 (Mesothelioma)): -0.0532
Bliss excess [6]: -0.012
Bliss excess (EW-11 (Ewing's Sarcoma)): 0.0195
Bliss excess [7]: -0.0415

CS(=O)(=O)CCNCc1ccc(-c2ccc3ncnc(Nc4ccc(OCc5cccc(F)c5)c(Cl)c4)c3c2)o1 [Lapatinib] + NC1(c2ccc(-c3nc4ccn5c(=O)[nH]nc5c4cc3-c3ccccc3)cc2)CCC1 [MK-2206] (first compound max 10 µM, 7x7, partner max 10 µM)
Bliss excess (GAMG (Glioblastoma)): 0.016
Bliss excess [1]: 0.0758
Bliss excess [2]: 0.0446
Bliss excess [3]: -0.0237
Bliss excess [4]: -0.0002
Bliss excess (A673 (Ewing's Sarcoma)): -0.064
Bliss excess [5]: 0.0079
Bliss excess (NCI-H2052 (Mesothelioma)): -0.0143
Bliss excess (MPP-89 (Mesothelioma)): -0.0391
Bliss excess [6]: 0.0208
Bliss excess (EW-11 (Ewing's Sarcoma)): -0.0003
Bliss excess [7]: -0.0417

C[C@@H]1COCCN1c1cc(C2([S@](C)(=N)=O)CC2)nc(-c2ccnc3[nH]ccc23)n1 [AZD6738] + Nc1ccn([C@@H]2O[C@H](CO)[C@@H](O)C2(F)F)c(=O)n1 [Gemcitabine] (first compound max 10 µM, 7x7, partner max 0.3 µM)
Bliss excess (GAMG (Glioblastoma)): 0.0615
Bliss excess [1]: 0.0098
Bliss excess [2]: 0.0623
Bliss excess [3]: 0.014
Bliss excess [4]: 0.0778
Bliss excess (A673 (Ewing's Sarcoma)): 0.0144
Bliss excess [5]: 0.0524
Bliss excess (MPP-89 (Mesothelioma)): 0.0348
Bliss excess [6]: 0.0296
Bliss excess (EW-11 (Ewing's Sarcoma)): -0.0094
Bliss excess [7]: 0.0769

Cc1nc(-c2cn3c(n2)-c2ccc(-c4cnn(C(C)(C)C(N)=O)c4)cc2OCC3)n(C(C)C)n1 [Taselisib] + O=C(Nc1ccc2[nH]nc(-c3ccncc3)c2c1)[C@@H]1CCN(CC(=O)N2CCN(c3ccc(-c4ncccn4)cc3)CC2)C1 [SCH772984] (first compound max 10 µM, 7x7, partner max 5 µM)
Bliss excess (GAMG (Glioblastoma)): 0.0241
Bliss excess [1]: 0.123
Bliss excess [2]: 0.0076
Bliss excess [3]: 0.037
Bliss excess [4]: 0.0858
Bliss excess (A673 (Ewing's Sarcoma)): 0.131
Bliss excess [5]: 0.0043
Bliss excess (MPP-89 (Mesothelioma)): 0.0373
Bliss excess [6]: 0.134
Bliss excess (EW-11 (Ewing's Sarcoma)): -0.002
Bliss excess [7]: -0.0048

C=CCn1c(=O)c2cnc(Nc3ccc(N4CCN(C)CC4)cc3)nc2n1-c1cccc(C(C)(C)O)n1 [AZD1775] + CCc1c2c(nc3ccc(O)cc13)-c1cc3c(c(=O)n1C2)COC(=O)[C@]3(O)CC [SN-38] (first compound max 1 µM, partner max 0.3 µM)
Bliss excess (GAMG (Glioblastoma)): 0.001
Bliss excess [1]: -0.0475
Bliss excess [2]: -0.0298
Bliss excess [3]: -0.0306
Bliss excess [4]: -0.0696
Bliss excess (A673 (Ewing's Sarcoma)): -0.0188
Bliss excess [5]: -0.0491
Bliss excess (MPP-89 (Mesothelioma)): 0.0163
Bliss excess [6]: -0.0599
Bliss excess (EW-11 (Ewing's Sarcoma)): -0.113
Bliss excess [7]: 0.0053

O=C(c1cc(Cc2n[nH]c(=O)c3ccccc23)ccc1F)N1CCN(C(=O)C2CC2)CC1 [Olaparib] + CC1(C)CCC(CN2CCN(c3ccc(C(=O)NS(=O)(=O)c4ccc(NCC5CCOCC5)c([N+](=O)[O-])c4)c(Oc4cnc5[nH]ccc5c4)c3)CC2)=C(c2ccc(Cl)cc2)C1 [Venetoclax] (first compound max 10 µM, 7x7, partner max 1 µM)
Bliss excess (GAMG (Glioblastoma)): -0.0303
Bliss excess [1]: 0.0258
Bliss excess [2]: -0.0418
Bliss excess [3]: 0.0238
Bliss excess [4]: -0.0246
Bliss excess (A673 (Ewing's Sarcoma)): 0.0169
Bliss excess [5]: -0.0666
Bliss excess (MPP-89 (Mesothelioma)): -0.0605
Bliss excess [6]: -0.0282
Bliss excess (EW-11 (Ewing's Sarcoma)): 0.0371
Bliss excess [7]: -0.0606

Cc1c2c(nn1C)CSCc1cc(n(C)n1)CSc1cc(c3ccccc3c1)OCCCc1c(C(=O)O)n(C)c3c-2c(Cl)ccc13 [AZD5991] + Nc1ccn([C@@H]2O[C@H](CO)[C@@H](O)C2(F)F)c(=O)n1 [Gemcitabine] (first compound max 1 µM, 7x7, partner max 0.3 µM)
Bliss excess (GAMG (Glioblastoma)): -0.0026
Bliss excess [1]: 0.0183
Bliss excess [2]: -0.0021
Bliss excess [3]: -0.0514
Bliss excess [4]: -0.0369
Bliss excess (A673 (Ewing's Sarcoma)): -0.021
Bliss excess [5]: 0.0006
Bliss excess (MPP-89 (Mesothelioma)): -0.0354
Bliss excess [6]: -0.0165
Bliss excess (EW-11 (Ewing's Sarcoma)): -0.0422
Bliss excess [7]: -0.0571

C[C@@H](Nc1cc(F)cc(F)c1)c1cc(C(=O)N(C)C)cc2c(=O)cc(N3CCOCC3)oc12 [AZD8186] + CC(=O)c1c(C)c2cnc(Nc3ccc(N4CCNCC4)cn3)nc2n(C2CCCC2)c1=O [Palbociclib] (first compound max 10 µM, 7x7, partner max 10 µM)
Bliss excess (GAMG (Glioblastoma)): -0.0098
Bliss excess [1]: 0.0891
Bliss excess [2]: 0.0373
Bliss excess [3]: -0.0144
Bliss excess [4]: 0.0853
Bliss excess (A673 (Ewing's Sarcoma)): 0.0743
Bliss excess [5]: 0.0239
Bliss excess (MPP-89 (Mesothelioma)): -0.0317
Bliss excess [6]: -0.0101
Bliss excess (EW-11 (Ewing's Sarcoma)): -0.0053
Bliss excess [7]: 0.0531

O=C(c1cc(Cc2n[nH]c(=O)c3ccccc23)ccc1F)N1CCN(C(=O)C2CC2)CC1 [Olaparib] + Cc1c2c(nn1C)CSCc1cc(n(C)n1)CSc1cc(c3ccccc3c1)OCCCc1c(C(=O)O)n(C)c3c-2c(Cl)ccc13 [AZD5991] (first compound max 10 µM, 7x7, partner max 1 µM)
Bliss excess (GAMG (Glioblastoma)): -0.0488
Bliss excess [1]: 0.0603
Bliss excess [2]: -0.045
Bliss excess [3]: 0.0217
Bliss excess [4]: -0.0339
Bliss excess (A673 (Ewing's Sarcoma)): -0.0566
Bliss excess [5]: -0.0334
Bliss excess (MPP-89 (Mesothelioma)): -0.0586
Bliss excess [6]: -0.0367
Bliss excess (EW-11 (Ewing's Sarcoma)): -0.0175
Bliss excess [7]: -0.0476
